Measured values taken from ChEMBL document CHEMBL3880391, “Tetrahydroquinoline derivatives as glycine antagonists” (2002).

Legend:
[1] = Toxicity in orally dosed mouse assessed as induction of untoward effects; type: organism-based; conditions: in vivo, po
Mus musculus = experiment: Analgesic activity in mouse assessed as inhibition of formalin-induced pain by measuring time spent licking injected paw for first 5 minutes (early phase) and from 20 to 60 mins (late phase) administered orally 1 hr before formalin injection by formalin test; type: functional

Structure (SMILES) | Activity [1] | ED50 (Mus musculus) [mg/kg] | ED50 (Mus musculus; Mus musculus, po, read-out: ED50) [mg/kg]
O=C([O-])C1C/C(=C2/CCN(c3ccccc3)C2=O)c2c(Cl)cc(Cl)cc2N1.[Na+] (centres undefined) | Non-Toxic |  | 
O=C([O-])C1C/C(=C2/NC(=O)N(c3ccccc3)C2=O)c2ccc(Cl)cc2N1.[Na+] (racemic) | Non-Toxic |  | 
O=C([O-])C1C/C(=C2\CCN(c3cccnc3)C2=O)c2ccc(Cl)cc2N1.[Na+] (racemic) | Non-Toxic |  | 
O=C([O-])C1CC(C2=CCCN(c3ccccc3)C2=O)c2ccc(Cl)cc2N1.[Na+] (racemic) | Non-Toxic |  | 
O=C([O-])C1CC(C2=CCN(c3ccccc3)C2=O)c2ccc(Cl)cc2N1.[Na+] (racemic) | Non-Toxic |  | 
O=C([O-])C1CC(C2=CCN(c3cccnc3)C2=O)c2ccc(Cl)cc2N1.[Na+] (racemic) | Non-Toxic |  | 
CS(=O)(=O)Nc1ccc(N2CC=C(C3CC(C(=O)[O-])Nc4cc(Cl)ccc43)C2=O)cc1.[Na+] (racemic) | Non-Toxic |  | 
CC(=O)Nc1ccc(N2CC=C(C3CC(C(=O)O)Nc4cc(Cl)ccc43)C2=O)cc1 (racemic) | Non-Toxic |  | 
CC(=O)Nc1ccc(N2CC/C(=C3\CC(C(=O)O)Nc4cc(Cl)ccc43)C2=O)cc1 (racemic) | Non-Toxic |  | 
O=C([O-])C1CC(C2=CCN(c3ccccc3)C2=O)c2c(Cl)cc(Cl)cc2N1.[Na+] (racemic) | Non-Toxic |  | 
O=C([O-])C1CC(C2=CCN(c3ccccc3)C2=O)c2ccc(Cl)cc2N1.[Na+] (single isomer, unassigned) |  | 0.3 | 
O=C([O-])C1CC(C2=CCN(c3ccccc3)C2=O)c2ccc(Cl)cc2N1.[Na+] (single isomer, unassigned; (-)) |  | 0.03 | 
O=C([O-])C1C/C(=C2\CCN(c3ccccc3)C2=O)c2ccc(Cl)cc2N1.[Na+] (single isomer, unassigned; (-)) | Non-Toxic |  | 0.14
